US12083124B2 (Incyte Corporation, priority 2019, dated 2024)
Like-named read-outs stand apart in the source and are kept apart here.

How the values were obtained:
[1] = target: wild-type un-phosphorylated FGFR3 (Homo sapiens, UniProt P22607); assay: FGFR Enzymatic Assay (FRET peptide phosphorylation), FGFR3
Procedure: The inhibitor potency of the exemplified compounds was determined in an enzyme discontinuous assay that measures peptide phosphorylation using FRET measurements to detect product formation. Inhibitors were serially diluted in DMSO and a volume of 0.2 μL was transferred to the wells of a 384-well plate. […] Appropriate controls (enzyme blank and enzyme with no inhibitor) were included on the plate. […] The 10 μL/well reaction concentration of the peptide substrate was 500 nM whereas the ATP concentration was maintained near or below the ATP Km. The ATP Km values were pre-determined in a separate series of experiments. The reaction plate was incubated at 25° C. for 1 hr and the reactions were ended with the addition of 5 μL/well of quench solution (50 mM Tris, 150 mM NaCl, 0.5 mg/mL BSA, pH 7.8; 45 mM EDTA, 600 nM staurosporin, with Perkin Elmer Lance Reagents at 3.75 nM Eu-antibody PY20 and 180 nM APC-Streptavidin). The plate was allowed to equilibrate for ˜10 minutes at ambient temperature before scanning on a PheraStar plate reader (BMG Labtech) instrument.
Either GraphPad prism or XLfit was used to analyze the data. The IC50 values were derived by fitting the data to a four parameter logistic equation producing a sigmoidal dose-response curve with a variable Hill coefficient. Prism equation: Y=Bottom+(Top-Bottom)/(1+10^((Log IC50-X)*Hill slope)); XLfit equation: Y=(A+((B−A)/(1+((X/C)^D)))) where X is the logarithm of inhibitor concentration and Y is the response.
GraphPad prism3 was used to analyze the data. The IC50 values were derived by fitting the data to the equation for a sigmoidal dose-response with a variable slope. Y=Bottom+(Top-Bottom)/(1+10^((Log IC50-X)*Hill Slope)) where X is the logarithm of concentration and Y is the response.

[2] = target: wild-type un-phosphorylated FGFR1 (Homo sapiens, UniProt P11362); assay: FGFR Enzymatic Assay (FRET peptide phosphorylation), FGFR1; conditions: pre-incubated for 4 hours
[3] = target: wild-type un-phosphorylated FGFR2 (Homo sapiens, UniProt P21802); assay: FGFR Enzymatic Assay (FRET peptide phosphorylation), FGFR2
[4] = read-out: FGFR1, wild-type un-phosphorylated FGFR1
[5] = read-out: FGFR3, wild-type un-phosphorylated FGFR3, pre-incubated for 4 hours
[6] = read-out: FGFR2, wild-type un-phosphorylated FGFR2, pre-incubated for 4 hours
[7] = FGFR1, wild-type un-phosphorylated FGFR1

Chain of wild-type un-phosphorylated FGFR3 (P22607 23-806): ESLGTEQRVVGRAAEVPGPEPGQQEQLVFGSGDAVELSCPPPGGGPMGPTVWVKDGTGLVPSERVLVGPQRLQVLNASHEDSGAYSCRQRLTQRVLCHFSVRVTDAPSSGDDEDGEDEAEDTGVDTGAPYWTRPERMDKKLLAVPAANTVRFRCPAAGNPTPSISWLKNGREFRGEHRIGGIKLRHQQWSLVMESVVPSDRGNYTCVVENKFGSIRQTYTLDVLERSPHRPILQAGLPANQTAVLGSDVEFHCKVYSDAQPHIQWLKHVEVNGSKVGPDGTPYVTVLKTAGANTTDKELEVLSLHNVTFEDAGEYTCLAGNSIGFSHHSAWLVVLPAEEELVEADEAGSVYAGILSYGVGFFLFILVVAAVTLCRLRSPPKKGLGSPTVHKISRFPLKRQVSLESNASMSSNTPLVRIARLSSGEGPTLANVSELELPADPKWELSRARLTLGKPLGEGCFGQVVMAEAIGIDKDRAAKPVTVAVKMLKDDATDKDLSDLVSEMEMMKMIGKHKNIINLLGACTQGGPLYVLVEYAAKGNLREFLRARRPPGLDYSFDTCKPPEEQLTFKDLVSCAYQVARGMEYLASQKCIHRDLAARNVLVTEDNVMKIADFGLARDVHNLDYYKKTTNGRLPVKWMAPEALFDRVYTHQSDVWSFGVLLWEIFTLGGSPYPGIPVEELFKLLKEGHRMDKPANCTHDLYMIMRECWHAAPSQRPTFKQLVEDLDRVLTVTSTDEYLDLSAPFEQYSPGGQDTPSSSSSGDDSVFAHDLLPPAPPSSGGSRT
Chain of wild-type un-phosphorylated FGFR1 (P11362 22-822): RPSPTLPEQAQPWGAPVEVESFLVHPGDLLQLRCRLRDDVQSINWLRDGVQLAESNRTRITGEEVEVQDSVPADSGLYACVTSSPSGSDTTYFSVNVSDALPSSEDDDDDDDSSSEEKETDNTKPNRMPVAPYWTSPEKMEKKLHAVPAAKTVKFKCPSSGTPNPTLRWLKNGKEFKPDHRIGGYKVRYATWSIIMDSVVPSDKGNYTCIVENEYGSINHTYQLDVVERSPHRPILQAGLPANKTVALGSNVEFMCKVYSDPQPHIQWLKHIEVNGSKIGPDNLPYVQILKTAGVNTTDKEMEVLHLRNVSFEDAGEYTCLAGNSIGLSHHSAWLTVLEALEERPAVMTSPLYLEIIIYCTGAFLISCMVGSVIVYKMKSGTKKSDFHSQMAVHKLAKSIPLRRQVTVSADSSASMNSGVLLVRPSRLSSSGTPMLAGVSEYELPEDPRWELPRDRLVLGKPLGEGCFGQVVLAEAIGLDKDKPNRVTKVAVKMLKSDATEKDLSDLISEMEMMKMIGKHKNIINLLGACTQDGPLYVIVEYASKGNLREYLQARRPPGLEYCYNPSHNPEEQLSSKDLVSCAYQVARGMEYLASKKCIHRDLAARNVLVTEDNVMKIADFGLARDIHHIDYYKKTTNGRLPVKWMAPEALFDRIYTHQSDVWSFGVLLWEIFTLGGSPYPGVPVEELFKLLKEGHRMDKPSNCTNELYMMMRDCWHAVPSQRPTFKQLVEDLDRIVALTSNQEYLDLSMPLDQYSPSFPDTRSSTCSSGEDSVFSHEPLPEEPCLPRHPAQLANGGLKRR
Chain of wild-type un-phosphorylated FGFR2 (P21802 22-821): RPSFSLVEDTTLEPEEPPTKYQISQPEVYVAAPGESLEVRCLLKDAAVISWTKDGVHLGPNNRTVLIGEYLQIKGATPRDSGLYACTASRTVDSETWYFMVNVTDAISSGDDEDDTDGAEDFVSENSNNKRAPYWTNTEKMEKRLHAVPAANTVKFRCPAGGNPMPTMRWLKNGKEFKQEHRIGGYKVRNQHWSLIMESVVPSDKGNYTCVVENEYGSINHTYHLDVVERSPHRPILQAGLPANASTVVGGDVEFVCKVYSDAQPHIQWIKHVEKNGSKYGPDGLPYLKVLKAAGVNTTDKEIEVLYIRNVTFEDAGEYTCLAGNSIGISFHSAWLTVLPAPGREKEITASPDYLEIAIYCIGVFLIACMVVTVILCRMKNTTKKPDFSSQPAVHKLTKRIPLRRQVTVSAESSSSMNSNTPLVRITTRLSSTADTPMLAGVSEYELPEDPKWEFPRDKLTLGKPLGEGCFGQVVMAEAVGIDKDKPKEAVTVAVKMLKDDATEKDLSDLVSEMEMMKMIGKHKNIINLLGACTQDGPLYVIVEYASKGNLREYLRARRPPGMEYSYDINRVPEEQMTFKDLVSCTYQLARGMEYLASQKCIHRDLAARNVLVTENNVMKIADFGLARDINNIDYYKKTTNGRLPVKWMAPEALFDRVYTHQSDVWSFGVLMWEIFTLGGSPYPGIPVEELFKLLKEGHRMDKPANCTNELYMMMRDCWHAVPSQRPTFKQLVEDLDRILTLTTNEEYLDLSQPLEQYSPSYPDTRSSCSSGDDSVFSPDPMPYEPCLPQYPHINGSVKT

IC50 [1] | IC50 [2, 4] | IC50 [3] | IC50 [1, 5] | IC50 [3, 6] | IC50 [2, 7] | Structure (SMILES)
< 6 nM | 6 to 40 nM | < 6 nM |  |  |  | COc1cc2[nH]nc(-c3ccc(C45CC4CN(C(=O)CO)C5)nc3)c2nc1-c1cccc2c1CCC2 (single isomer, unassigned) [Example 191B, 1-(1-(5-(5-(2,3-Dihydro-1H-inden-4-yl)-6-methoxy-1H-pyrazolo[4,3-b]pyridin-3-yl)pyridin-2-yl)-3-azabicyclo[3.1.0]hexan-3-yl)-2-hydroxyethan-1-one]
 | 6 to 40 nM |  | < 6 nM | < 6 nM |  | COc1cc2[nH]nc(-c3ccc(C45CC4CN(C(=O)CO)C5)nc3)c2nc1-c1cccc2c1CCC2 (single isomer, unassigned) [Example 191C, 1-(1-(5-(5-(2,3-Dihydro-1H-inden-4-yl)-6-methoxy-1H-pyrazolo[4,3-b]pyridin-3-yl)pyridin-2-yl)-3-azabicyclo[3.1.0]hexan-3-yl)-2-hydroxyethan-1-one]
< 6 nM | 6 to 40 nM | < 6 nM |  |  |  | COc1cc2[nH]nc(-c3ccc(C45CC4CN(CCO)C5)nc3)c2nc1-c1cccc2c1CCC2 (single isomer, unassigned) [Example 194B, 2-(1-(5-(5-(2,3-Dihydro-1H-inden-4-yl)-6-methoxy-1H-pyrazolo[4,3-b]pyridin-3-yl)pyridin-2-yl)-3-azabicyclo[3.1.0]hexan-3-yl)ethan-1-ol]
 | 6 to 40 nM |  | < 6 nM | < 6 nM |  | COc1cc2[nH]nc(-c3ccc(C45CC4CN(CCO)C5)nc3)c2nc1-c1cccc2c1CCC2 (single isomer, unassigned) [Example 194C, 2-(1-(5-(5-(2,3-Dihydro-1H-inden-4-yl)-6-methoxy-1H-pyrazolo[4,3-b]pyridin-3-yl)pyridin-2-yl)-3-azabicyclo[3.1.0]hexan-3-yl)ethan-1-ol]
< 6 nM |  | < 6 nM |  |  | 40 to 100 nM | COc1cc2[nH]nc(-c3cnn(Cc4ncnn4C)c3)c2nc1-c1cccc(C)c1C [Example 3, 5-(2,3-Dimethylphenyl)-6-methoxy-3-(1-((1-methyl-1H-1,2,4-triazol-5-yl)methyl)-1H-pyrazol-4-yl)-1H-pyrazolo[4,3-b]pyridine]
< 6 nM |  | < 6 nM |  |  | > 100 nM | CC(=O)N1CCN(c2ccc(-c3n[nH]c4cc(OC(F)F)c(-c5cccc(C)c5C)nc34)cn2)CC1 [Example 6, 1-(4-(5-(6-(Difluoromethoxy)-5-(2,3-dimethylphenyl)-1H-pyrazolo[4,3-b]pyridin-3-yl)pyridin-2-yl)piperazin-1-yl)ethan-1-one]
< 6 nM |  | < 6 nM |  |  | > 100 nM | COc1cc2[nH]nc(-c3ccc(N4CCN(C(C)=O)CC4)nc3)c2nc1-c1cccc(C)c1C [Example 43, 1-(4-(5-(5-(2,3-Dimethylphenyl)-6-methoxy-1H-pyrazolo[4,3-b]pyridin-3-yl)pyridin-2-yl)piperazin-1-yl)ethan-1-one]
< 6 nM |  | < 6 nM |  |  | > 100 nM | COc1cc2[nH]nc(-c3ccc(N4CCN(C)C(=O)C4)nc3)c2nc1-c1cccc(C)c1C [Example 45, 4-(5-(5-(2,3-Dimethylphenyl)-6-methoxy-1H-pyrazolo[4,3-b]pyridin-3-yl)pyridin-2-yl)-1-methylpiperazin-2-one]
< 6 nM |  | < 6 nM |  |  | > 100 nM | COc1cc2[nH]nc(-c3ccc(N4CCC(O)CC4)nc3)c2nc1-c1cccc(C)c1C [Example 46, 1-(5-(5-(2,3-Dimethylphenyl)-6-methoxy-1H-pyrazolo[4,3-b]pyridin-3-yl)pyridin-2-yl)piperidin-4-ol]
< 6 nM |  | < 6 nM |  |  | 40 to 100 nM | [2H]C([2H])([2H])Oc1cc2[nH]nc(-c3ccc(N4CCN(C)CC4)nc3)c2nc1-c1cccc(C)c1C [Example 48, 5-(2,3-Dimethylphenyl)-6-(methoxy-d3)-3-(6-(4-methylpiperazin-1-yl)pyridin-3-yl)-1H-pyrazolo[4,3-b]pyridine]
< 6 nM |  | < 6 nM |  |  | > 100 nM | COc1cc2[nH]nc(-c3ccc(N4CCC(C(=O)N(C)C)CC4)nc3)c2nc1-c1cccc(C)c1C [Example 50, 1-(5-(5-(2,3-Dimethylphenyl)-6-methoxy-1H-pyrazolo[4,3-b]pyridin-3-yl)pyridin-2-yl)-N,N-dimethylpiperidine-4-carboxamide]
< 6 nM |  | < 6 nM |  |  | 40 to 100 nM | COc1cc2[nH]nc(-c3ccc(N4CCC(C)(C(=O)O)CC4)nc3)c2nc1-c1cccc(C)c1C [Example 51, 1-(5-(5-(2,3-Dimethylphenyl)-6-methoxy-1H-pyrazolo[4,3-b]pyridin-3-yl)pyridin-2-yl)-4-methylpiperidine-4-carboxylic acid]
< 6 nM |  | < 6 nM |  |  | > 100 nM | COc1cc2[nH]nc(-c3ccc(N4CCC5(CC4)CNC(=O)O5)nc3)c2nc1-c1cccc(C)c1C [Example 65, 8-(5-(5-(2,3-Dimethylphenyl)-6-methoxy-1H-pyrazolo[4,3-b]pyridin-3-yl)pyridin-2-yl)-1-oxa-3,8-diazaspiro[4.5]decan-2-one]
< 6 nM |  | < 6 nM |  |  | 40 to 100 nM | [2H]C([2H])([2H])c1cccc(-c2nc3c(-c4ccc(N5CCN(C)CC5)nc4)n[nH]c3cc2OC)c1C [Example 68, 6-Methoxy-5-(2-methyl-3-(methyl-d3)phenyl)-3-(6-(4-methylpiperazin-1-yl)pyridin-3-yl)-1H-pyrazolo[4,3-b]pyridine]
< 6 nM |  | < 6 nM |  |  | 40 to 100 nM | COc1cc2[nH]nc(-c3ccc(C4CCC(C(=O)O)CC4)nc3)c2nc1-c1cccc(C)c1C (stereo not drawn) [Example 79, 4-(5-(5-(2,3-Dimethylphenyl)-6-methoxy-1H-pyrazolo[4,3-b]pyridin-3-yl)pyridin-2-yl)cyclohexane-1-carboxylic acid]
< 6 nM |  | < 6 nM |  |  | 40 to 100 nM | COc1cc2[nH]nc(-c3ccc(N4C[C@@H](F)[C@@H](N)C4)nc3)c2nc1-c1cccc(C)c1C [Example 80, (3S,4R)-1-(5-(5-(2,3-Dimethylphenyl)-6-methoxy-1H-pyrazolo[4,3-b]pyridin-3-yl)pyridin-2-yl)-4-fluoropyrrolidin-3-amine]
< 6 nM | 6 to 40 nM | < 6 nM |  |  |  | COc1cc2[nH]nc(-c3ccc(C4CCN(C(=O)CO)CC4)nc3)c2nc1-c1cccc2c1CC(F)C2 (stereo not drawn) [Example 82, 1-(4-(5-(5-(2-Fluoro-2,3-dihydro-1H-inden-4-yl)-6-methoxy-1H-pyrazolo[4,3-b]pyridin-3-yl)pyridin-2-yl)piperidin-1-yl)-2-hydroxyethan-1-one]
< 6 nM | 6 to 40 nM | < 6 nM |  |  |  | COc1cc2[nH]nc(-c3ccc(N4CCN5C[C@H](O)C[C@H]5C4)nc3)c2nc1-c1cccc2c1CC(F)C2 (stereo partly drawn) [Example 83, (7R,8aS)-2-(5-(5-(2-Fluoro-2,3-dihydro-1H-inden-4-yl)-6-methoxy-1H-pyrazolo[4,3-b]pyridin-3-yl)pyridin-2-yl)octahydropyrrolo[1,2-a]pyrazin-7-ol]
< 6 nM |  | < 6 nM |  |  | > 100 nM | COc1cc2[nH]nc(-c3ccc(N4CCS(=N)(=O)CC4)nc3)c2nc1-c1cccc(C)c1C [Example 86, 4-(5-(5-(2,3-Dimethylphenyl)-6-methoxy-1H-pyrazolo[4,3-b]pyridin-3-yl)pyridin-2-yl)-1-imino-1λ^6-thiomorpholine 1-oxide]
< 6 nM |  | < 6 nM |  |  | > 100 nM | COc1cc2[nH]nc(-c3ccc(N4CCN(CCO)CC4)nc3)c2nc1-c1cccc(CC#N)c1C [Example 89, 2-(3-(3-(6-(4-(2-Hydroxyethyl)piperazin-1-yl)pyridin-3-yl)-6-methoxy-1H-pyrazolo[4,3-b]pyridin-5-yl)-2-methylphenyl)acetonitrile]
< 6 nM |  |  |  | 6 to 40 nM | > 100 nM | COc1cc2[nH]nc(-c3ccc(N4CCN5C[C@H](O)C[C@H]5C4)nc3)c2nc1-c1cccc(OC)c1C [Example 90, (7R,8aS)-2-(5-(6-Methoxy-5-(3-methoxy-2-methylphenyl)-1H-pyrazolo[4,3-b]pyridin-3-yl)pyridin-2-yl)octahydropyrrolo[1,2-a]pyrazin-7-ol]
< 6 nM |  |  |  | 6 to 40 nM | > 100 nM | COc1cc2[nH]nc(-c3ccc(N4CCN5C[C@H](O)C[C@H]5C4)nc3)c2nc1-c1cccc2c1OCCO2 [Example 91, (7R,8aS)-2-(5-(5-(2,3-Dihydrobenzo[b][1,4]dioxin-5-yl)-6-methoxy-1H-pyrazolo[4,3-b]pyridin-3-yl)pyridin-2-yl)octahydropyrrolo[1,2-a]pyrazin-7-ol]
< 6 nM |  |  |  | 6 to 40 nM | > 100 nM | COc1cc2[nH]nc(-c3ccc(N4CCN5C[C@H](O)C[C@H]5C4)nc3)c2nc1-c1ccccc1C1CC1 [Example 92, (7R,8aS)-2-(5-(5-(2-Cyclopropylphenyl)-6-methoxy-1H-pyrazolo[4,3-b]pyridin-3-yl)pyridin-2-yl)octahydropyrrolo[1,2-a]pyrazin-7-ol]
< 6 nM |  |  |  | 6 to 40 nM | > 100 nM | COc1cc2[nH]nc(-c3ccc(N4CCN5C[C@H](O)C[C@H]5C4)nc3)c2nc1-c1cccc2c1CCCO2 [Example 93, (7R,8aS)-2-(5-(5-(Chroman-5-yl)-6-methoxy-1H-pyrazolo[4,3-b]pyridin-3-yl)pyridin-2-yl)octahydropyrrolo[1,2-a]pyrazin-7-ol]
< 6 nM |  |  |  | 6 to 40 nM | > 100 nM | COc1cc2[nH]nc(-c3ccc(N4CCN5C[C@H](O)C[C@H]5C4)nc3)c2nc1-c1cccc(C)c1F [Example 94, (7R,8aS)-2-(5-(5-(2-Fluoro-3-methylphenyl)-6-methoxy-1H-pyrazolo[4,3-b]pyridin-3-yl)pyridin-2-yl)octahydropyrrolo[1,2-a]pyrazin-7-ol]
